Laboratory results from patent US20230093861A1, “RAPAMYCIN ANALOGS AS MTOR INHIBITORS” (Revolution Medicines, Inc., priority 2017, published 2023).

Tests used:
P-P70S6K (T389) = assay: Cell based AlphaLISA assay, inhibition of P-P70S6K (T389) (mTORC1 substrate phosphorylation) in MDA-MB-468 cells; settings: Homo sapiens, 4 h, AlphaLISA, two to four hours at 37° C., read-out: pIC50 for Inhibition of mTORC1 and mTORC2 Substrate Phosphorylation, P-P70S6K-(T389) (converted)
Description: (§1) Cell Based AlphaLISA Assays for Determining IC50 for Inhibition of P-Akt (S473), P-4E-BP1 (T37/46), and P-P70S6K (T389) in MDA-MB-468 Cells
(§2) mTOR Kinase Cellular Assay
(§3) To measure functional activity of mTORC1 and mTORC2 in cells the phosphorylation of 4EBP1 (Thr37/46) and P70S6K (Thr389), and AKT1/2/3 (Ser473) was monitored using AlphaLisa SureFire Ultra Kits (Perkin Elmer). […] Incubations were terminated by removal of the assay buffer and addition of lysis buffer provided with the assay kit. Samples were processed according to the manufacturer's instructions. The Alpha signal from the respective phosphoproteins was measured in duplicate using a microplate reader (Envision, Perkin-Elmer or Spectramax M5, Molecular Devices). Inhibitor concentration response curves were analyzed using normalized IC50 regression curve fitting with control based normalization.

P-4E-BP1 (T37/46) = assay: Cell based AlphaLISA assay, inhibition of P-4E-BP1 (T37/46) (mTORC1 substrate phosphorylation) in MDA-MB-468 cells; settings: Homo sapiens, MDA-MB-468, 4 h, AlphaLISA, two to four hours at 37° C., read-out: pIC50 for Inhibition of mTORC1 and mTORC2 Substrate Phosphorylation, P-4E-BP1-(T37/46) (converted)
Description: as §1, §2, §3

P-Akt (S473) = assay: Cell based AlphaLISA assay, inhibition of P-Akt (S473) (mTORC2 substrate phosphorylation) in MDA-MB-468 cells; settings: Homo sapiens, MDA-MB-468, 4 h, AlphaLISA, two to four hours at 37° C., read-out: pIC50 for Inhibition of mTORC1 and mTORC2 Substrate Phosphorylation, p-AKT 1/2/3 -(S473) (converted)
Description: as §1, §2, §3

CO[C@H]1C[C@@H]2CC[C@@H](C)[C@@](O)(O2)C(=O)C(=O)N2CCCC[C@H]2C(=O)O[C@H]([C@H](C)C[C@@H]2CC[C@@H](O)[C@H](OC)C2)C[C@@H](OC)[C@H](C)/C=C(\C)[C@@H](O)[C@@H](OC)C(=NOCc2cn(CCOCCOCCOCCOCCOCCC(=O)NCCCCn3nc(-c4ccc5oc(N)nc5c4)c4c(N)ncnc43)nn2)[C@H](C)C[C@H](C)/C=C/C=C/C=C/1C [Example 12]
IC50 (P-P70S6K (T389)): > 1000 nM | IC50 (P-4E-BP1 (T37/46)): > 1000 nM | IC50 (P-Akt (S473)): > 1000 nM

CO[C@H]1C[C@@H]2CC[C@@H](C)[C@@](O)(O2)C(=O)C(=O)N2CCCC[C@H]2C(=O)O[C@H]([C@H](C)C[C@@H]2CC[C@@H](O)[C@H](OC)C2)C[C@@H](OC)[C@H](C)/C=C(\C)[C@@H](O)[C@@H](OC)C(=NOCc2cn(CCOCCOCCOCCOCCOCCOCCC(=O)NCCCCn3nc(-c4ccc5oc(N)nc5c4)c4c(N)ncnc43)nn2)[C@H](C)C[C@H](C)/C=C/C=C/C=C/1C [Example 13]
IC50 (P-P70S6K (T389)): 1 to 10 nM | IC50 (P-4E-BP1 (T37/46)): 3.16 to 31.6 nM | IC50 (P-Akt (S473)): 31.6 to 1000 nM

CO[C@H]1C[C@@H]2CC[C@@H](C)[C@@](O)(O2)C(=O)C(=O)N2CCCC[C@H]2C(=O)O[C@H]([C@H](C)C[C@@H]2CC[C@@H](O)[C@H](OC)C2)C[C@@H](OC)[C@H](C)/C=C(\C)[C@@H](O)[C@@H](OC)/C(=N/OCc2cn(CCOCCOCCOCCOCCOCCOCCC(=O)NCCCCn3nc(-c4ccc5oc(N)nc5c4)c4c(N)ncnc43)nn2)[C@H](C)C[C@H](C)/C=C/C=C/C=C/1C [Example 14]
IC50 (P-P70S6K (T389)): 1 to 10 nM | IC50 (P-4E-BP1 (T37/46)): 3.16 to 31.6 nM | IC50 (P-Akt (S473)): 31.6 to 1000 nM

CO[C@H]1C[C@@H]2CC[C@@H](C)[C@@](O)(O2)C(=O)C(=O)N2CCCC[C@H]2C(=O)O[C@H]([C@H](C)C[C@@H]2CC[C@@H](O)[C@H](OC)C2)C[C@@H](OC)[C@H](C)/C=C(\C)[C@@H](O)[C@@H](OC)/C(=N\OCc2cn(CCOCCOCCOCCOCCOCCOCCC(=O)NCCCCn3nc(-c4ccc5oc(N)nc5c4)c4c(N)ncnc43)nn2)[C@H](C)C[C@H](C)/C=C/C=C/C=C/1C [Example 15]
IC50 (P-P70S6K (T389)): 1 to 10 nM | IC50 (P-4E-BP1 (T37/46)): 3.16 to 31.6 nM | IC50 (P-Akt (S473)): 31.6 to 1000 nM

CO[C@H]1C[C@@H]2CC[C@@H](C)[C@@](O)(O2)C(=O)C(=O)N2CCCC[C@H]2C(=O)O[C@H]([C@H](C)C[C@@H]2CC[C@@H](O)[C@H](OC)C2)C[C@@H](OC)[C@H](C)/C=C(\C)[C@@H](O)[C@@H](OC)C(=NOCc2cn(CCOCCOCCOCCOCCC(=O)NCCCCn3nc(-c4ccc5oc(N)nc5c4)c4c(N)ncnc43)nn2)[C@H](C)C[C@H](C)/C=C/C=C/C=C/1C [Example 16]
IC50 (P-P70S6K (T389)): > 1000 nM | IC50 (P-4E-BP1 (T37/46)): > 1000 nM | IC50 (P-Akt (S473)): > 1000 nM

CO[C@H]1C[C@@H]2CC[C@@H](C)[C@@](O)(O2)C(=O)C(=O)N2CCCC[C@H]2C(=O)O[C@H]([C@H](C)C[C@@H]2CC[C@@H](O)[C@H](OC)C2)C[C@@H](OC)[C@H](C)/C=C(\C)[C@@H](O)[C@@H](OC)C(=NOCc2cn(CCOCCOCCOCCOCCOCCOCCOCCOCCC(=O)NCCCCn3nc(-c4ccc5oc(N)nc5c4)c4c(N)ncnc43)nn2)[C@H](C)C[C@H](C)/C=C/C=C/C=C/1C [Example 17]
IC50 (P-P70S6K (T389)): 1 to 10 nM | IC50 (P-4E-BP1 (T37/46)): 3.16 to 31.6 nM | IC50 (P-Akt (S473)): 31.6 to 1000 nM

CO[C@@H]1C[C@H](C[C@@H](C)[C@@H]2CC(=O)[C@H](C)/C=C(\C)[C@@H](O)[C@@H](OC)C(=O)[C@H](C)C[C@H](C)/C=C/C=C/C=C(\C)[C@@H](c3ccco3)C[C@@H]3CC[C@@H](C)[C@@](O)(O3)C(=O)C(=O)N3CCCC[C@H]3C(=O)O2)CC[C@H]1OCCCCc1cn(CCOCCOCCOCCOCCOCCOCCOCCOCCC(=O)NCCCCn2nc(-c3ccc4oc(N)nc4c3)c3c(N)ncnc32)nn1 [Example 18]
IC50 (P-P70S6K (T389)): < 1 nM | IC50 (P-4E-BP1 (T37/46)): < 3.16 nM | IC50 (P-Akt (S473)): < 3.16 nM

CO[C@H]1C[C@@H]2CC[C@@H](C)[C@@](O)(O2)C(=O)C(=O)N2CCCC[C@H]2C(=O)O[C@H]([C@H](C)C[C@@H]2CC[C@@H](OCc3cccc(-c4cnc(N5CCN(Cc6cn(CCOCCOCCOCCOCCOCCC(=O)NCCCCn7nc(-c8ccc9oc(N)nc9c8)c8c(N)ncnc87)nn6)CC5)nc4)c3)[C@H](OC)C2)CC(=O)[C@H](C)/C=C(\C)[C@@H](O)[C@@H](OC)C(=O)[C@H](C)C[C@H](C)/C=C/C=C/C=C/1C [Example 20]
IC50 (P-P70S6K (T389)): < 1 nM | IC50 (P-4E-BP1 (T37/46)): < 3.16 nM | IC50 (P-Akt (S473)): 3.16 to 31.6 nM

CO[C@H]1C[C@@H]2CC[C@@H](C)[C@@](O)(O2)C(=O)C(=O)N2CCCC[C@H]2C(=O)O[C@H]([C@H](C)C[C@@H]2CC[C@@H](OCc3cccc(-c4cnc(N5CCN(Cc6cn(CCOCCOCCOCCOCCC(=O)NCCCCn7nc(-c8ccc9oc(N)nc9c8)c8c(N)ncnc87)nn6)CC5)nc4)c3)[C@H](OC)C2)CC(=O)[C@H](C)/C=C(\C)[C@@H](O)[C@@H](OC)C(=O)[C@H](C)C[C@H](C)/C=C/C=C/C=C/1C [Example 21]
IC50 (P-P70S6K (T389)): < 1 nM | IC50 (P-4E-BP1 (T37/46)): < 3.16 nM | IC50 (P-Akt (S473)): 3.16 to 31.6 nM

CO[C@H]1C[C@@H]2CC[C@@H](C)[C@@](O)(O2)C(=O)C(=O)N2CCCC[C@H]2C(=O)O[C@H]([C@H](C)C[C@@H]2CC[C@@H](OCc3cccc(-c4cnc(N5CCN(Cc6cn(CCOCCOCCOCCC(=O)NCCCCn7nc(-c8ccc9oc(N)nc9c8)c8c(N)ncnc87)nn6)CC5)nc4)c3)[C@H](OC)C2)CC(=O)[C@H](C)/C=C(\C)[C@@H](O)[C@@H](OC)C(=O)[C@H](C)C[C@H](C)/C=C/C=C/C=C/1C [Example 22]
IC50 (P-P70S6K (T389)): < 1 nM | IC50 (P-4E-BP1 (T37/46)): < 3.16 nM | IC50 (P-Akt (S473)): 3.16 to 31.6 nM

CO[C@H]1C[C@@H]2CC[C@@H](C)[C@@](O)(O2)C(=O)C(=O)N2CCCC[C@H]2C(=O)O[C@H]([C@H](C)C[C@@H]2CC[C@@H](OCc3cccc(-c4cnc(N5CCN(Cc6cn(CCOCCOCCOCCOCCOCCC(=O)NCCCCn7nc(-c8ccc9oc(N)nc9c8)c8c(N)ncnc87)nn6)C(CO)C5)nc4)c3)[C@H](OC)C2)CC(=O)[C@H](C)/C=C(\C)[C@@H](O)[C@@H](OC)C(=O)[C@H](C)C[C@H](C)/C=C/C=C/C=C/1C (stereo partly drawn) [Example 23]
IC50 (P-P70S6K (T389)): < 1 nM | IC50 (P-4E-BP1 (T37/46)): < 3.16 nM | IC50 (P-Akt (S473)): < 3.16 nM

CO[C@H]1C[C@@H]2CC[C@@H](C)[C@@](O)(O2)C(=O)C(=O)N2CCCC[C@H]2C(=O)O[C@H]([C@H](C)C[C@@H]2CC[C@@H](OCc3cccc(-c4cnc(N5CCN(Cc6cn(CCOCCOCCOCCOCCC(=O)NCCCCn7nc(-c8ccc9oc(N)nc9c8)c8c(N)ncnc87)nn6)C(CO)C5)nc4)c3)[C@H](OC)C2)CC(=O)[C@H](C)/C=C(\C)[C@@H](O)[C@@H](OC)C(=O)[C@H](C)C[C@H](C)/C=C/C=C/C=C/1C (stereo partly drawn) [Example 24]
IC50 (P-P70S6K (T389)): < 1 nM | IC50 (P-4E-BP1 (T37/46)): < 3.16 nM | IC50 (P-Akt (S473)): 3.16 to 31.6 nM

CO[C@H]1C[C@@H]2CC[C@@H](C)[C@@](O)(O2)C(=O)C(=O)N2CCCC[C@H]2C(=O)O[C@H]([C@H](C)C[C@@H]2CC[C@@H](OCc3cccc(-c4cnc(N5CCN(Cc6cn(CCOCCOCCOCCC(=O)NCCCCn7nc(-c8ccc9oc(N)nc9c8)c8c(N)ncnc87)nn6)C(CO)C5)nc4)c3)[C@H](OC)C2)CC(=O)[C@H](C)/C=C(\C)[C@@H](O)[C@@H](OC)C(=O)[C@H](C)C[C@H](C)/C=C/C=C/C=C/1C (stereo partly drawn) [Example 25]
IC50 (P-P70S6K (T389)): < 1 nM | IC50 (P-4E-BP1 (T37/46)): < 3.16 nM | IC50 (P-Akt (S473)): 3.16 to 31.6 nM

CO[C@H]1C[C@@H]2CC[C@@H](C)[C@@](O)(O2)C(=O)C(=O)N2CCCC[C@H]2C(=O)O[C@H]([C@H](C)C[C@@H]2CC[C@@H](OCc3cccc(-c4cnc(N5CCN(S(=O)(=O)CCc6cn(CCOCCOCCOCCOCCC(=O)NCCCCn7nc(-c8ccc9oc(N)nc9c8)c8c(N)ncnc87)nn6)CC5)nc4)c3)[C@H](OC)C2)CC(=O)[C@H](C)/C=C(\C)[C@@H](O)[C@@H](OC)C(=O)[C@H](C)C[C@H](C)/C=C/C=C/C=C/1C [Example 26]
IC50 (P-P70S6K (T389)): < 1 nM | IC50 (P-4E-BP1 (T37/46)): < 3.16 nM | IC50 (P-Akt (S473)): 3.16 to 31.6 nM

CO[C@H]1C[C@@H]2CC[C@@H](C)[C@@](O)(O2)C(=O)C(=O)N2CCCC[C@H]2C(=O)O[C@H]([C@H](C)C[C@@H]2CC[C@@H](OCc3cccc(-c4cnc(N5CCN(S(=O)(=O)CCc6cn(CCOCCOCCOCCC(=O)NCCCCn7nc(-c8ccc9oc(N)nc9c8)c8c(N)ncnc87)nn6)CC5)nc4)c3)[C@H](OC)C2)CC(=O)[C@H](C)/C=C(\C)[C@@H](O)[C@@H](OC)C(=O)[C@H](C)C[C@H](C)/C=C/C=C/C=C/1C [Example 27]
IC50 (P-P70S6K (T389)): < 1 nM | IC50 (P-4E-BP1 (T37/46)): < 3.16 nM | IC50 (P-Akt (S473)): 3.16 to 31.6 nM

CO[C@H]1C[C@@H]2CC[C@@H](C)[C@@](O)(O2)C(=O)C(=O)N2CCCC[C@H]2C(=O)O[C@H]([C@H](C)C[C@@H]2CC[C@@H](OCc3cccc(-c4cnc(N5CCN(S(=O)(=O)CCc6cn(CCOCCOCCC(=O)NCCCCn7nc(-c8ccc9oc(N)nc9c8)c8c(N)ncnc87)nn6)CC5)nc4)c3)[C@H](OC)C2)CC(=O)[C@H](C)/C=C(\C)[C@@H](O)[C@@H](OC)C(=O)[C@H](C)C[C@H](C)/C=C/C=C/C=C/1C [Example 28]
IC50 (P-P70S6K (T389)): < 1 nM | IC50 (P-4E-BP1 (T37/46)): < 3.16 nM | IC50 (P-Akt (S473)): 3.16 to 31.6 nM
